# “Also recorded” adds a separate entry of the source.
# Columns and labels:
# [1] = plasma, brain and CSF levels after a single oral dose in mice; format: in vivo, mouse
# Description: Prior to the evaluation of the new D1R PAM 26 in animal models, the in vivo cerebrospinal fluid (CSF) and brain permeability were studied. […] Concentrations in the CSF and brain were quantifiable up to 4 h. Brain-to-plasma concentration ratios were in the range of 0.55–1.15 between 0.5 and 4 h and CSF-to-plasma concentration ratio in the range of 0.13–0.21 between 0.5 and 4 h.
# Figure 5 Compound levels in the plasma, brain, and CSF of mouse administered with 5 mg/kg (po) of compound 26. Horizontal dotted line indicates the EC50 value of the compound.
# [2] = tested on: reserpinized C57BL/6 mice; assay: locomotor activity in reserpinized mice; format: in vivo, mouse
# Description: The study was carried out in male C57BL/6 wild-type (22–25 g) mice that were acclimatized for 5 days. Animals were randomized based on body weight into six groups (G1 to G6), ten animals per group (n = 10), being group G1 the naïve control group. Animals were fed with standard diet ad libitum. Animals were dosed with subcutaneous administration of reserpine (2.5 mg/kg in DMSO/saline) and after 20 h they were treated with a vehicle (10 mL/kg, po), compound 26 (30 mg/kg, po), L-DOPA (100 or 400 mg/kg, ip) + carbidopa (100 mg/kg, ip) and/or their combination, as indicated in Figure 7. The vehicle employed for compound 26 administration was 5% NMP + 5% solutol HS-15 + 90% normal saline. L-DOPA and carbidopa were administered 30 min prior to start of locomotor activity recording. Compound 26 was administered and 15 min later, mice were placed in the locomotor activity cage to measure the locomotor activity for 60 min (total distance travelled) using ALL Maze version 0.5 automated software enabled with video tracking system. After the activity sessions, raw data were reduced using ALL Maze 5.0 software and Microsoft Excel. Statistical analysis was done with GraphPad Prism-5 using one way ANOVA followed by Dunnett’s test/Tukey’s post hoc test and/or two-way ANOVA followed by Bonferroni post hoc test. Data were considered statistically significant, if P value was less than 0.05.
# C57BL/6J mice = assay: novel object recognition test; format: in vivo, mouse; details: 1 mg/kg ip; tested at 24 and 96 h
# Description: Procedures for animal experiments were conducted in adherence to the European Communities Council Directive (86/609/ECC) and Spanish regulations (BOE 252/34367-91, 2005) for the use of laboratory animals. Experiments were performed on 3 month old male mice with a C57BL/6J background. Eight mice were used for each experimental condition. Mice were maintained on a 12 h light/dark cycle (lights on at 08:00 am), with water and food provided ad libitum. Object recognition test was performed according to a previously reported method.[58] Briefly, mice were first habituated to an empty open field apparatus (40 × 40 × 40 cm) for 5 min. After the habituation session, mice received an ip injection of compound 26 (1 mg/kg) or vehicle (NaCl 0.9%). Twenty minutes later, mice were placed again in the open field, which now included two identical copies of an object (“familiar” object) located in two adjacent corners, and mice were allowed to explore for 10 min (acquisition session). […] The total time of object exploration (defined as the mouse touching an object with its nose or forepaws) was scored, and object recognition memory was calculated by the following discrimination ratio: time exploring the new object—time exploring the familiar object)/total time exploring both objects.
compound,measurement,setting,value
"CS(=N)(=O)c1ccc(-c2ccccc2OCF)cc1 (stereo not drawn) [Compound 26, 2-(Fluoromethoxy)-4′-(S-methanesulfonimidoyl)-1,1′-biphenyl]",CSF-to-plasma free concentration ratio,[1]; 5 mg/kg po,approximately 1
same,time up to which CSF concentrations were quantifiable,"[1]; 5 mg/kg po, male BALB/c mice",4 h
same,time up to which brain concentrations were quantifiable,"[1]; 5 mg/kg po, male BALB/c mice",4 h
same,time up to which plasma concentrations were quantifiable,"[1]; 5 mg/kg po, male BALB/c mice",8 h
same,Kp,"[1]; male, BALB/c, mouse, CSF and plasma, 5 mg/kg po, between 0.5 and 4 h, read-out: CSF-to-plasma concentration ratio",0.13 to 0.21
same,Kp at 4 h,"[1]; male, BALB/c, mouse, brain and plasma, 5 mg/kg po, between 0.5 and 4 h, read-out: brain-to-plasma concentration ratio",0.55 to 1.15
same,Tmax at 8 h,"[1]; mouse, plasma, 5 mg/kg single oral dose, male BALB/c mice",30 min
same,adverse effects observed in the animals,"[2]; after oral dose administration, 30 mg/kg",no sign of adverse effects
same,effect on locomotor activity in combination with L-DOPA,"[2]; reserpine 2.5 mg/kg sc, 26 30 mg/kg po plus L-DOPA 100 or 400 mg/kg ip",moderate synergistic effect
same,"recovery of decreased locomotor activity, substance alone","[2]; reserpine 2.5 mg/kg sc, 26 30 mg/kg po, L-DOPA 100 or 400 mg/kg ip",small recovery of decreased locomotor activity
same,memory in the novel object recognition test,C57BL/6J mice,increases memory trace; also recorded: Enhanced memory
same,melting point,,144 to 145 °C

# — publication PMC9511493, “2-(Fluoromethoxy)-4′-(S-methanesulfonimidoyl)-1,1′-biphenyl (UCM-1306), an Orally Bioavailable Positive Allosteric Modulator of the Human Dopamine D1 Receptor for Parkinson’s Disease” (Journal of Medicinal Chemistry, 2022)
